# Earlier results, collected in patent EP3572069A1, “INCREASING SOLUBILITY AND BIOAVAILABILITY OF ENZALUTAMIDE” (Zentiva K.S., priority 2018, dated 2019).
# What was measured:
# [1] = background statement, no test described
# [2] = not told
Solubility [1],Permeability [2],Structure (SMILES)
very poorly soluble,,"CNC(=O)c1ccc(N2C(=S)N(c3ccc(C#N)c(C(F)(F)F)c3)C(=O)C2(C)C)cc1F [Crystalline enzalutamide, 4-(3-(4-cyano-3-(trifluoromethyl)phenyl)-5,5-dimethyl-4-oxo-2-thioxo-1-imidazolidinyl)-2-fluoro-N-methyl-benzamide]"
dissolves better,,"CNC(=O)c1ccc(N2C(=S)N(c3ccc(C#N)c(C(F)(F)F)c3)C(=O)C2(C)C)cc1F [Amorphous form of enzalutamide, 4-(3-(4-cyano-3-(trifluoromethyl)phenyl)-5,5-dimethyl-4-oxo-2-thioxo-1-imidazolidinyl)-2-fluoro-N-methyl-benzamide]"
,high permeability,"CNC(=O)c1ccc(N2C(=S)N(c3ccc(C#N)c(C(F)(F)F)c3)C(=O)C2(C)C)cc1F [Enzalutamide, 4-(3-(4-cyano-3-(trifluoromethyl)phenyl)-5,5-dimethyl-4-oxo-2-thioxo-1-imidazolidinyl)-2-fluoro-N-methyl-benzamide]"
